Laboratory results taken from US7728016B2, “Substituted 5-membered ring compounds and their use” (Vernalis (Cambridge) Limited, priority 2003, dated 2010).

Molecular target: T1, human full-length HSP90 (Homo sapiens, UniProt P08238)
T1 construct: E. coli expressed human full-length HSP90 protein; made in house; host or cells: E. coli
Assay: Fluorescence polarization assay (competitive displacement of probe RBT0045864-FAM from HSP90)
Assay type: binding
Settings: fluorescence polarisation assay, E. coli expressed human full-length HSP90, probe 80 nM
Excerpt: A fluorescence polarization assay was employed for the evaluation of some of the compounds of the Examples:
Fluorescence Polarization Assay
Fluorescence polarization {also known as fluorescence anisotropy} measures the rotation of a fluorescing species in solution, where the larger molecule the more polarized the fluorescence emission. When the fluorophore is excited with polarized light, the emitted light is also polarized. The molecular size is proportional to the polarization of the fluorescence emission.
The fluoroscein-labelled probe—RBT0045864-FAM—
[drawing 25] binds to HSP90 {full-length human, full-length yeast or N-terminal domain HSP90} and the anisotropy {rotation of the probe:protein complex} is measured.
Test compound is added to the assay plate, left to equilibrate and the anisotropy measured again. Any change in anisotropy is due to competitive binding of compound to HSP90, thereby releasing probe.
Chemicals are of the highest purity commercially available and all aqueous solutions are made up in AR water. • 1) Costar 96-well black assay plate #3915 • 2) Assay buffer of (a)100 mM Tris pH7.4; (b) 20 mM KCl; (c) 6 mM MgCl2. Stored at room temperature. • 3) BSA (bovine serum albumen) 10 mg/ml (New England Biolabs #B9001S) • 4) 20 mM probe in 100% DMSO stock concentration. Stored in the dark at RT. Working concentration is 200 nM diluted in AR water and stored at 4° C. Final concentration in assay 80 nM. • 5) E. coli expressed human full-length HSP90 protein, purified >95% (see, e.g., Panaretou et al., 1998) and stored in 50 μL aliquots at −80° C. Protocol • 1) Add 100 μl 1× buffer to wells 11A and 12A (=FP BLNK) • 2) Prepare assay mix—all reagents are kept on ice with a lid on the bucket as the probe is light-sensitive.
• 3) Aliquot 100 μl assay mix to all other wells • 4) Seal plate and leave in dark at room temp for 20 minutes to equilibrate Compound Dilution Plate—1×3 Dilution Series • 1) In a clear 96-well v-bottom plate—{#VWR 007/008/257} add 10 μl 100% DMSO to wells B1 to H11 • 2) To wells A1 to A11 add 17.5 μl 100% DMSO • 3) Add 2.5 μl cpd to A1. This gives 2.5 mM {50×} stock cpd—assuming cpds 20 mM. • 4) Repeat for wells A2 to A10. Control in columns 11 and 12. • 5) Transfer 5 μl from row A to row B—not column 12. Mix well. • 6) Transfer 5 μl from row B to row C. […] In column 11 {provides standard curve} only add compound B11-H11. Add 2 μl of 100 mM standard cpd to wells B12-H12 {is positive control} • 13) The Z′ factor is calculated from zero controls and positive wells. It typically gives a value of 0.7-0.9.
The compounds tested in the above assay were assigned to one of two activity ranges, namely A=<10 μM; B=>10 μM, and those assignments are reported above.

T1 sequence (P08238 whole entry): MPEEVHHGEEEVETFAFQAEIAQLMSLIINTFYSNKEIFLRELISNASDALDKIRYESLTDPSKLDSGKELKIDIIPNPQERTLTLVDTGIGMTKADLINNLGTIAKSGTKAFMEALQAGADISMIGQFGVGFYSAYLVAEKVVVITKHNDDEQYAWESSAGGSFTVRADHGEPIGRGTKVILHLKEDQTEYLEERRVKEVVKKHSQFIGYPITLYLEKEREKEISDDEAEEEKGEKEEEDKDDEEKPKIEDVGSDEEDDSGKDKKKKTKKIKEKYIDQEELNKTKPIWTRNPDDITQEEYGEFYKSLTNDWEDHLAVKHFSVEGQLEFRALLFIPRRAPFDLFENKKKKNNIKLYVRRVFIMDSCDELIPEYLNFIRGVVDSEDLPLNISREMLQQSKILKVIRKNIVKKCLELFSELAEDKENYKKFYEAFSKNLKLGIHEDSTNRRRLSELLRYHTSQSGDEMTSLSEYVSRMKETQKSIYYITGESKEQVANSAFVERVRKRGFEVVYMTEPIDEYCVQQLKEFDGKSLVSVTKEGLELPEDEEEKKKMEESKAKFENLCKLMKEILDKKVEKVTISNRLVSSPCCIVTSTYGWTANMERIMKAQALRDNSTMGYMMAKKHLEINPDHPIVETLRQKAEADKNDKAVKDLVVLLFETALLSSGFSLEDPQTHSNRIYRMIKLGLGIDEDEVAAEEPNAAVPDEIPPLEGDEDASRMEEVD

Compound	IC50
Oc1ccc(C2NN=C(Cc3ccccc3)S2)c(O)c1 (centres unmarked) [(ii)]	> 10 µM
Oc1ccc(-c2nnc(S)n2-c2cccc3ccccc23)c(O)c1 [(iii)]	< 10 µM
COc1ccc(OC)c(-n2c(S)nnc2-c2ccc(O)cc2O)c1 [(v)]	< 10 µM
O=C(O)c1nnn(-c2ccc(O)cc2O)c1-c1ccc(F)cc1 [Example 1, 1-(2,4-Dihydroxy-phenyl)-5-(4-fluoro-phenyl)-1H-[1,2,3]triazole-4-carboxylic acid]	> 10 µM
CCOC(=O)c1nnn(-c2ccc(O)cc2O)c1-c1ccc(F)cc1 [Example 2, 1-(2,4-Dihydroxy-phenyl)-5-(4-fluoro-phenyl)-1H-[1,2,3]triazole-4-carboxylic acid ethyl ester]	> 10 µM
Oc1ccc(-c2csc(-c3c[nH]c4ccccc34)n2)c(O)c1 [(i)]	> 10 µM
Cc1ccccc1-n1c(S)nnc1-c1ccc(O)cc1O [(iv)]	< 10 µM
CCOC(=O)c1nnn(-c2cc(Cl)c(O)cc2O)c1-c1ccc(F)cc1 [Example 3, 1-(5-Chloro-2,4-dihydroxy-phenyl)-5-(4-fluoro-phenyl)-1H-[1,2,3]triazole-4-carboxylic acid ethyl ester]	< 10 µM
